Experimental findings from patent US11866450B2, “Modulators of Cystic Fibrosis Transmembrane Conductance regulator, pharmaceutical compositions, methods of treatment, and process for making the modulators” (priority 2018, dated 2024) are described below.

By EC50 is commonly meant the midpoint of the concentration-response curve.

Each structure is given as a SMILES string. Like-named read-outs stand apart in the source and are kept apart here. Some results are limits rather than exact numbers.

For data set [1] the following is noted: snar bond.
The target in data set [2] is CFTR-mediated chloride transport (Homo sapiens, UniProt P13569). The format is cell-based. As to conditions: enteroid cells incubated with test compound 18-24 hours, acute 10 μM forskolin and 300 nM Compound III; for Max. Activity: % of chloride transport with 3 μM Compound A, 3 μM Compound II and 300 nM acute Compound III triple combination control. Put shortly:
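Human intestinal enteroid cells incubated with compound 18–24 h at 37° C., then membrane potential dye (FLIPR) read 15 min after chloride-free stimulation with 10 μM forskolin, 100 μM IBMX and 300 nM Compound III. AUC expressed as % of triple-combination control (3 μM Compound A, 3 μM Compound II, 300 nM Compound III).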

Sequence of CFTR-mediated chloride transport (P13569 whole entry, looked up): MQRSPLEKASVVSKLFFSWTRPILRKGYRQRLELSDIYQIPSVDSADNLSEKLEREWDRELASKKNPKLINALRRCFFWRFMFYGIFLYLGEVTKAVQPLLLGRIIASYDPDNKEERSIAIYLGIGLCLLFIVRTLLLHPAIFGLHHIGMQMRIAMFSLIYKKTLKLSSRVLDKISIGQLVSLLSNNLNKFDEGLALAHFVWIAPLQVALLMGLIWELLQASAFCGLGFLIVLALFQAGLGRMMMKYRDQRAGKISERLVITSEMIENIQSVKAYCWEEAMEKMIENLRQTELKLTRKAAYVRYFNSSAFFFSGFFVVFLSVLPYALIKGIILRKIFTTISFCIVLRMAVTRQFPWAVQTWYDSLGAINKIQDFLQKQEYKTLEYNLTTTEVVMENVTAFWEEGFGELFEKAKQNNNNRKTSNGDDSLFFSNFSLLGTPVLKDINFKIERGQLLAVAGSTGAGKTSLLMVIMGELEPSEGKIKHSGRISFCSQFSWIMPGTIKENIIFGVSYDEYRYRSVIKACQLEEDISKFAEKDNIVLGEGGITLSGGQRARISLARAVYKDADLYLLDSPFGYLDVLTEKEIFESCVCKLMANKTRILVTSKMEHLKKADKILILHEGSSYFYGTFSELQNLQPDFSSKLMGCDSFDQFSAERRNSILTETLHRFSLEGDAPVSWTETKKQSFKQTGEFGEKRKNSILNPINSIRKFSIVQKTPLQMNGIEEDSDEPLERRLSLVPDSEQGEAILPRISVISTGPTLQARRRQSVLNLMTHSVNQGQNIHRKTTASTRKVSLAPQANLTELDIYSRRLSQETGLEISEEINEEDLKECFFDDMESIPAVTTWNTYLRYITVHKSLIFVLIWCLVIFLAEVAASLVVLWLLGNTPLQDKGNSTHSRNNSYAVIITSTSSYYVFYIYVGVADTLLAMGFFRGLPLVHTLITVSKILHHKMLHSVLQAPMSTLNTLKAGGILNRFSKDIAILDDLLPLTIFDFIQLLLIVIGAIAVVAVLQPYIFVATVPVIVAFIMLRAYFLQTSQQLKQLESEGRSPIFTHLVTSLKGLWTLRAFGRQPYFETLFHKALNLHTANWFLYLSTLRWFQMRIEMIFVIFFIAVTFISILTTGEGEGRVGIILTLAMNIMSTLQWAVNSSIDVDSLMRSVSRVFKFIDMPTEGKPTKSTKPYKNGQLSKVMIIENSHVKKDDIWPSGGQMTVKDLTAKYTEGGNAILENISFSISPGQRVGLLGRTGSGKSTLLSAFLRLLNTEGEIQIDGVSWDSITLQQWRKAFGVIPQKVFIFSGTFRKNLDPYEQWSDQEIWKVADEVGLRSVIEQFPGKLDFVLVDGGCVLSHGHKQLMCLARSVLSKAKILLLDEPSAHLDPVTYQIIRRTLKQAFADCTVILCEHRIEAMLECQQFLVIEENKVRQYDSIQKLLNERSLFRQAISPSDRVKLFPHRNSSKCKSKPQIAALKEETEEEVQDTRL

In turn, `CC1(C)CC2CN1c1nc(-n3ccc(OCCCC4(C(F)(F)F)CC4)n3)ccc1C(=O)NS(=O)(=O)c1cccc(n1)NCCO2` (stereo not shown) [Compound 157] had a ring closure, yield after HPLC in data set [1] (from CC1(C)CC(OCCNc2cccc(S(=O)(=O)NC(=O)c3ccc(-n4ccc(OCCCC5(C(F)(F)F)CC5)n4)nc3Cl)n2)CN1, 15-membered ring, K2CO3/CsF/4A MS, DMSO, 105.0 mM, 150.0 °C) of 34%. Further, in data set [2], the half-maximal effective concentration (EC50) was under 1000 nM and the “Max. Activity” value was “+++ (+++ is >60%)”.
On to `CC1(C)CC2CCCn3ccc(n3)S(=O)(=O)NC(=O)c3ccc(-n4ccc(OCCC5(C(F)(F)F)CC5)n4)nc3N1C2` (stereo not shown) [Compound 32, 20,20-dimethyl-4-(3-{2-[1-(trifluoromethyl)cyclopropyl]ethoxy}-1H-pyrazol-1-yl)-10λ^6-thia-1,3,9,14,22-pentaazatetracyclo[16.2.1.111,14.02,7]docosa-2(7),3,5,11(22),12-pentaene-8,10,10-trione], for which the ring closure, yield after HPLC in data set [1] (from CC(C)(C)OC(=O)N1CC(CCCn2ccc(S(=O)(=O)NC(=O)c3ccc(-n4ccc(OCCC5(C(F)(F)F)CC5)n4)nc3Cl)n2)CC1(C)C, 14-membered ring, K2CO3/CsF/3A MS, DMSO, 55.3 mM, 130.0 °C, 2 steps) came to 40%. Also, in data set [2], the EC50 is under 1000 nM and the “Max. Activity” value is recorded as “+++ (+++ is >60%)”.
In data set [1] (from CC1(C)C[C@H](CCCNc2cccc(S(=O)(=O)NC(=O)c3ccc(C4=CCCCO4)nc3Cl)n2)CN1, 15-membered ring, K2CO3, NMP, 25.7 mM, 180.0 °C), `CC1(C)C[C@@H]2CCCNc3cccc(n3)S(=O)(=O)NC(=O)c3ccc(C4=CCCCO4)nc3N1C2` [Compound 303, (14S)-8-(3,4-dihydro-2H-pyran-6-yl)-12,12-dimethyl-2λ^6-thia-3,9,11,18,23-pentaazatetracyclo[17.3.1.111,14.05,10]tetracosa-1(22),5,7,9,19(23),20-hexaene-2,2,4-trione] came in with a ring closure, yield after HPLC of 3%. Also, in data set [2], the EC50 is under 1000 nM and the “Max. Activity” value is “+++ (+++ is >60%)”.
`[2H]C([2H])(COc1ccn(-c2ccc3c(n2)N2C[C@@H](CCCNc4cccc(n4)S(=O)(=O)NC3=O)CC2(C)C)n1)CC1(C(F)(F)F)CC1` [Compound 270, (14S)-12,12-Dimethyl-8-(3-{3-[1-(trifluoromethyl)cyclopropyl]-2,2-dideuterio-propoxy}-1H-pyrazol-1-yl)-2λ^6-thia-3,9,11,18,23-pentaazatetracyclo[17.3.1.111,14.05,10]tetracosa-1(23),5(10),6,8,19,21-hexaene-2,2,4-trione]: the ring closure, yield after HPLC in data set [1] (from [2H]C([2H])(COc1ccn(-c2ccc(C(=O)NS(=O)(=O)c3cccc(NCCC[C@@H]4CN(C(=O)OC(C)(C)C)C(C)(C)C4)n3)c(Cl)n2)n1)CC1(C(F)(F)F)CC1, 15-membered ring, TFA/DCM, then K2CO3/CsF/3A MS, DMSO, 27.0 mM, 150.0 °C, 2 steps) came to 44%. Moreover, in data set [2], the 50% effective concentration (EC50) is under 1000 nM and the “Max. Activity” value is “+++ (+++ is >60%)”.
For the molecule `CC1(C)CC2CCCCn3ccc(n3)S(=O)(=O)NC(=O)c3ccc(-n4ccc(OCCCC5(C(F)(F)F)CC5)n4)nc3N1C2` (stereo not shown) [Compound 275, 21,21-Dimethyl-4-(3-{3-[1-(trifluoromethyl)cyclopropyl]propoxy}-1H-pyrazol-1-yl)-10λ^6-thia-1,3,9,14,23-pentaazatetracyclo[17.2.1.111,14.02,7]tricosa-2,4,6,11(23),12-pentaene-8,10,10-trione], the ring closure, yield after HPLC in data set [1] (from CC1(C)CC(CCCCn2ccc(S(=O)(=O)NC(=O)c3ccc(-n4ccc(OCCCC5(C(F)(F)F)CC5)n4)nc3Cl)n2)CN1, 15-membered ring, K2CO3/CsF/3A MS, DMSO, 24.7 mM, 150.0 °C, 18.0 h) was determined as 47%. In addition, in data set [2], the EC50 lay within 1000 to 3000 nM and the “Max. Activity” value was “++ (++ is 30-60%)”.
In data set [1] (from CC(C)C(COc1ccn(-c2ccc(C(=O)NS(=O)(=O)c3cccc(NCCCC4CCC(C)(C)N4C(=O)OC(C)(C)C)n3)c(Cl)n2)n1)C(C)C, 15-membered ring, K2CO3/CsF/3A MS, DMSO, 83.8 mM, 140.0 °C, 2 steps), `CC(C)C(COc1ccn(-c2ccc3c(n2)N2CC(CCCNc4cccc(n4)S(=O)(=O)NC3=O)CC2(C)C)n1)C(C)C` (stereo not shown) [Compound 220, 12,12-Dimethyl-8-{3-[3-methyl-2-(propan-2-yl)butoxy]-1H-pyrazol-1-yl}-2λ^6-thia-3,9,11,18,23-pentaazatetracyclo[17.3.1.111,14.05,10]tetracosa-1(23),5(10),6,8,19,21-hexaene-2,2,4-trione] came in with a ring closure, yield after HPLC of 39%. Besides, in data set [2], the half-maximal effective concentration (EC50) was under 1000 nM and the “Max. Activity” value was “+++ (+++ is >60%)”.
For the molecule `CC(C)COc1cc(F)cc(-c2ccc3c(n2)N2C[C@@H](CCCn4ccc(n4)S(=O)(=O)NC3=O)CC2(C)C)c1` [Compound 226], the ring closure, yield after HPLC in data set [1] (from CC(C)COc1cc(F)cc(-c2ccc(C(=O)NS(=O)(=O)c3ccn(CCC[C@@H]4CN(C(=O)OC(C)(C)C)C(C)(C)C4)n3)c(Cl)n2)c1, 14-membered ring, K2CO3/CsF/3A MS, DMSO, 15.0 mM, 150.0 °C, 2 steps) came out at 34%. In addition, in data set [2], the half-maximal effective concentration (EC50) is under 1000 nM and the “Max. Activity” value is “++ (++ is 30-60%)”.
`CC1(C)CC2CN1c1nc(-n3ccc(OCCC4(C(F)(F)F)CC4)n3)ccc1C(=O)NS(=O)(=O)c1ccnn1CCO2` (stereo not shown) [Compound 152, 21,21-dimethyl-4-(3-{2-[1-(trifluoromethyl)cyclopropyl]ethoxy}-1H-pyrazol-1-yl)-18-oxa-10λ^6-thia-1,3,9,14,15-pentaazatetracyclo[17.2.1.02,7.011,15]docosa-2(7),3,5,11,13-pentaene-8,10,10-trione] yielded a ring closure, yield after HPLC in data set [1] (from CC(C)(C)OC(=O)N1CC(OCCn2ccc(S(=O)(=O)NC(=O)c3ccc(-n4ccc(OCCC5(C(F)(F)F)CC5)n4)nc3Cl)n2)CC1(C)C, 13-membered ring, K2CO3/CsF/3A MS, DMSO, 62.0 mM, 140.0 °C, 2 steps) of 34%. In addition, in data set [2], the EC50 is over 3000 nM and the “Max. Activity” value is recorded as “+ (+ is <30%)”.
As to `CC1(C)C[C@@H]2CCCNc3cccc(n3)S(=O)(=O)NC(=O)c3ccc(-n4ccc(OCC(C)(C)C(F)(F)F)n4)nc3N1C2` [Compound 208, (14S)-12,12-dimethyl-8-[3-(3,3,3-trifluoro-2,2-dimethylpropoxy)-1H-pyrazol-1-yl]-2λ^6-thia-3,9,11,18,23-pentaazatetracyclo[17.3.1.111,14.05,10]tetracosa-1(22),5,7,9,19(23),20-hexaene-2,2,4-trione], in data set [1] (from CC1(C)C[C@H](CCCNc2cccc(S(=O)(=O)NC(=O)c3ccc(-n4ccc(OCC(C)(C)C(F)(F)F)n4)nc3Cl)n2)CN1, 15-membered ring, K2CO3/CsF/3A MS, DMSO, 57.7 mM, 150.0 °C), the ring closure, yield after HPLC is 51%. Moreover, in data set [2], the EC50 is under 1000 nM and the “Max. Activity” value is recorded as “+++ (+++ is >60%)”.
On to `CC1(C)CC2CCCOc3ccc(cn3)S(=O)(=O)NC(=O)c3ccc(-n4ccc(OCCC5(C(F)(F)F)CC5)n4)nc3N1C2` (stereo not shown) [Compound 90, 12,12-dimethyl-8-(3-{2-[1-(trifluoromethyl)cyclopropyl]ethoxy}-1H-pyrazol-1-yl)-18-oxa-2λ^6-thia-3,9,11,20-tetraazatetracyclo[17.2.2.111,14.05,10]tetracosa-1(21),5(10),6,8,19,22-hexaene-2,2,4-trione], for which, in data set [1] (from CC(C)(C)OC(=O)N1CC(CCCOc2ccc(S(=O)(=O)NC(=O)c3ccc(-n4ccc(OCCC5(C(F)(F)F)CC5)n4)nc3Cl)cn2)CC1(C)C, 16-membered ring, HCl (Boc off), K2CO3/CsF/3A MS, DMSO, 61.4 mM, 155.0 °C, 2 steps), the ring closure, yield after HPLC was 7%. In data set [2], the EC50 was under 1000 nM and the “Max. Activity” value is listed as “++ (++ is 30-60%)”.
In the case of `[2H]C1(CCOc2ccn(-c3ccc4c(n3)N3C[C@@H](CCCNc5cccc(n5)S(=O)(=O)NC4=O)CC3(C)C)n2)C2(CC2)C12CC2` [Compound 253, (14S)-8-(3-{2-[(7-deuterio)dispiro[2.0.2.1]heptan-7-yl]ethoxy}-1H-pyrazol-1-yl)-12,12-dimethyl-2λ^6-thia-3,9,11,18,23-pentaazatetracyclo[17.3.1.111,14.05,10]tetracosa-1(22),5,7,9,19(23),20-hexaene-2,2,4-trione], the ring closure, yield after HPLC in data set [1] (from [2H]C1(CCOc2ccn(-c3ccc(C(=O)NS(=O)(=O)c4cccc(NCCC[C@@H]5CN(C(=O)OC(C)(C)C)C(C)(C)C5)n4)c(Cl)n3)n2)C2(CC2)C12CC2, 15-membered ring, K2CO3/CsF/3A MS, DMSO, 20.4 mM, 150.0 °C, 2 steps) came to 43%. Besides, in data set [2], the EC50 is under 1000 nM and the “Max. Activity” value was “+++ (+++ is >60%)”.
In data set [1] (from CC(C)(C)OC(=O)N1C(CCCNc2cccc(S(=O)(=O)NC(=O)c3ccc(-n4ccc(OCCC(C5CC5)C5CC5)n4)nc3Cl)n2)CCC1(C)C, 14-membered ring, K2CO3/CsF/3A MS, DMSO, 94.1 mM, 150.0 °C, 2 steps), `CC1(C)CCC2CCCNc3cccc(n3)S(=O)(=O)NC(=O)c3ccc(-n4ccc(OCCC(C5CC5)C5CC5)n4)nc3N21` (stereo not shown) [Compound 131, 8-[3-(3,3-Dicyclopropylpropoxy)-1H-pyrazol-1-yl]-12,12-dimethyl-2λ^6-thia-3,9,11,19,24-pentaazatetracyclo[18.3.1.05,10.011,15]tetracosa-1(23),5(10),6,8,20(24),21-hexaene-2,2,4-trione] had a ring closure, yield after HPLC of 39%. In data set [2], the 50% effective concentration (EC50) is under 1000 nM and the “Max. Activity” value was “++ (++ is 30-60%)”.
In data set [1] (from [2H]C([2H])(Oc1ccn(-c2ccc(C(=O)NS(=O)(=O)c3ccc(OCc4ccccc4)c(NCCC[C@@H]4CN(C(=O)OC(C)(C)C)C(C)(C)C4)n3)c(Cl)n2)n1)C([2H])([2H])C1C2(CC2)C12CC2, 15-membered ring, K2CO3/4A MS, DMSO, 100.9 mM, 140.0 °C, 2 steps), `[2H]C([2H])(Oc1ccn(-c2ccc3c(n2)N2C[C@@H](CCCNc4nc(ccc4OCc4ccccc4)S(=O)(=O)NC3=O)CC2(C)C)n1)C([2H])([2H])C1C2(CC2)C12CC2` registered a ring closure, yield after HPLC of 44%.
